Earlier results as cited in US12303619B2, “Polymer implants” (Foundry Therapeutics, Inc., priority 2018, dated 2025).

## CCCCN1CCCCC1C(=O)Nc1c(C)cccc1C (stereo not shown) [bupivacaine]
  pKa: about 8.0
